{
  "source": "patent US20240418723A1",
  "about": "“SEQUENTIAL TREATMENTS AND BIOMARKERS TO REVERSE RESISTANCE TO KINASE INHIBITORS” (Queen Mary University of London, priority 2021, published 2024)",
  "system": "CD34-positive human haematopoietic cells",
  "assay": "FACS analysis of healthy CD34-positive haematopoietic cells after LSD1i and MEKi sequential treatment",
  "type": "cell-based",
  "excerpt": "We next tested whether the LSD1i->MEKi sequential treatment may be affecting healthy human haematopoietic (CD34-positive) cells. We observed an increase in the expression of differentiation markers, such as CD11b and CD14, but no effect on the proportion of CD34-positive cells as a result of treatment with LSD1i (FIG. 11, A to C).\nUmbilical cord bloods were purchased from Anthony Nolan. Mononuclear cells (MNCs) were isolated by Ficoll prior red blood cells (RBC) lysis buffer (BioLegend, catalog #420301). Cells were then stained with CD34 immunomagnetic positive selection kit (EasySep™ Human CD34 Positive Selection Kit II, StemCell technologies, catalog #17856, according to manufacturer instructions). Purity of CD34^+ cells isolated from MNCs was assessed by flow cytometry prior to long term storage in liquid nitrogen. For AML samples, patients gave informed consent for the storage and use of their blood cells for research purposes. Experiments were performed in accordance with the Local Research Ethics Committee, as previously described. Mononuclear cells from peripheral blood or bone marrow biopsies were isolated in the BCI tissue bank facility and stored in liquid nitrogen.\nFor the establishment of the feeder layer, MS-5 cells were plated onto 6-well plates (for the co-culture with CD34+ cord blood cells) or 96-well plates (for the co-culture with primary AML cells) at a density of 5-10,000 cells/cm^2 (48,000 cells for each well of a 6-well plate, or 3,200 cells for each well of a 96-well plate) with IMDM medium. Cells were then incubated at 37° C. for 48 hours, or until a confluency of approximately 70% was reached, after which they were irradiated with an X-ray source at 680 cGy. Following irradiation, the growth medium was removed and replaced with complete H5100 medium, and cell were incubated at 37° C. for a further 24 hours.\nFollowing recovery, cord blood-derived CD34+ cells or primary AML cells were added to the plates containing the established MS-5 feeder layers. CD34+ cells were added at a density of 20,000 cells/well of a 6-well plate, whilst primary AML cells were added at 8,300 cells/well of a 96-well plate. Cells were then left to incubate at 37° C. and to recover for 4 days, after which treatments were started. […] Following treatment, CD34+ cells were harvested by collecting culture medium in FACS tubes. Adherent cells were detached by briefly incubating with trypsin-EDTA, then also added to the respective FACS tubes. Cells were centrifuged at 300×g for 8 minutes, the supernatant was removed and cells were resuspended in 1 mL PBS+2% FBS, then processed for FACS analysis as described below. For primary AML, cells were resuspended and transferred to separate 96-well plates, after which they were processed for Guava ViaCount analysis, as described below. […]",
  "key": {"[1]": {"details": "LSD1i 5 days, healthy CD34-positive cells co-cultured with MS5 (FIG. 11)"}},
  "data": [
    {"smiles": "O=C(O)c1ccc(CN2CCC(CN[C@@H]3C[C@H]3c3ccccc3)CC2)cc1", "note": "[GSK2879552]", "values": [
      {"measurement": "effect on normal stem/progenitor cell compartment", "setting": "LSD1i 5 days then MEKi 3 days", "result": "preserved the normal stem/progenitor cell compartment"},
      {"measurement": "apoptosis (Annexin V) in healthy haematopoietic cells", "setting": "LSD1i 5 days then MEKi 3 days, mostly restricted to the more mature CD34-negative cells (FIG. 11D, 12)", "result": "increased apoptosis"},
      {"measurement": "expression of differentiation markers, such as CD11b and CD14", "setting": "[1]", "result": "increase"},
      {"measurement": "proportion of CD34-positive cells", "setting": "[1]", "result": "no effect"}
    ]}
  ]
}
